Laboratory results reported in patent US20050222235A1, “Drugs for improving the prognosis of brain injury and a method of screening the same” (priority 2002, published 2005).

Legend:
Assay type in all cases: in vivo, mouse
Stab wound model mice [1] = experiment: Stab wound model: Evans Blue dye leakage to the injured site; details: for leakage of the dye to the injured site: Stab wound model mice, Evans Blue after 2 days
Procedure: Degree of injury was quantified by a dye leakage (Evans Blue) to the injured site (Kakimura Y, et al., Nature Medicine, 4:1078-1080, 1998). After 2 days from injury, the maximum value was noted and, after that, it lowered as a result of recovery (refer to FIG. 20).
An effect of BW A868C or ramatroban ((±)-(3R)-3-(4-fluorobenzenesulfonamide)-1,2,3,4-tetrahydrocarbazol-9-propionic acid) which is an antagonist for prostaglandin D receptor to Stab wound model mice was evaluated using leakage amount of dye to the injured site as an index. Thus, Evans Blue dye was intravenously administered after 2 days from occurrence of brain injury and the amount of leakage of the dye to the tissue during 2 hours thereafter was measured. When BW A868C (1 mg/kg) was intravenously administered after 3 hours and after one day from occurrence of the brain injury, leakage of the dye to the injured site was suppressed (refer to FIG. 27).
An effect of pinagladin which is a DP receptor antagonist to a Stab wound model was evaluated by a leakage amount of dye to the injured site. Thus, Evans Blue was intravenously injected on the second day after occurrence of brain injury and leakage amount of the dye into the tissue during 2 hours thereafter was measured. As a result, when pinagladin (10 mg/kg) was orally administered before 1 hour and after one day of the occurrence of the injury, an increase in leakage amount of Evans Blue dye noted as a result of brain injury was suppressed (refer to FIG. 24).

Stab wound model mice [2] = experiment: Stab wound model of traumatic brain injury: recovery / progress of brain injury (histology)
DP receptor = experiment: Stab wound model: DP receptor mRNA in tissue injury region; details: oral 30 mg/kg/day for 4 days from one hour before injuring
Twitcher mice = Twitcher mice (hereditary demyelinating disease): astroglia activation and DP receptor expression; details: subcutaneous 30 mg/kg/day for 14 days
Description: Changes in mRNA of H-PGDS and DP receptor as a result of demyelination were quantified by a quantitative RT-PCR method using a model mouse Twitcher of human Krabbe diseases which is a disease where galactosylceramidase is deficient (Kobayashi T, et al., Brain Res., 202:479-483, 1980; Duchen L W, et al., Brain, 103:695-710, 1980; Sakai N, et al., J. Neurochem., 66:1118-1124, 1996; Taniike M et al., J. Neuropathol. Exp. Neurol., 58:644-653, 1999) (refer to FIG. 1). Expression of mRNA of both H-PGDS and DP receptor increased as a result of demyelination.
HQL-79 (4-benzhydryloxy-1-{3-(1H-tetrazol-5-yl)-propyl}piperidine) which is an H-PGDS inhibitor was subcutaneously administered to Twitcher mice at the dose of 30 mg/kg/day for 14 days whereupon activation of astroglia cells was suppressed and, at the same time, expression of DP receptor in astroglia cells lowered (refer to FIG. 13).

[3] = traumatic brain injury, administration started after 24 hours from injury

## O=C(O)CCn1c2c(c3ccccc31)C[C@H](NS(=O)(=O)c1ccc(F)cc1)CC2 [ramatroban, (+)-(3R)-3-(4-fluorobenzenesulfonamide)-1,2,3,4-tetrahydrocarbazol-9-propionic acid]
Stab wound model mice [1]; 30 mg/kg oral after 3 hours and after one day from injury, leakage during 2 hours
  leakage of the dye to the injured site: suppressed

## CC1(C)[C@H]2C[C@H](C/C=C\CCCC(=O)O)[C@@H](NC(=O)c3csc4ccccc34)[C@@H]1C2 [pinagladin, (Z)-7-[(1R,2R,3S,5S)-2-(benzo[b]-thiophene-3-ylcarbonylamino)-10-norpinan-3-yl]hepta-5-enoic acid]
Stab wound model mice [1]; Stab wound model, 10 mg/kg oral before 1 hour and after one day of injury, Evans Blue on second day, leakage during 2 hours
  increase in leakage amount of Evans Blue dye as a result of brain injury: suppressed
Stab wound model mice [2]; Stab wound model, in any of administration routes
  progress of brain injury (histopathological investigation): suppressed the progress of brain injury

## O=C(O)CCCCCCC1C(=O)N(Cc2ccccc2)C(=O)N1NCC(O)C1CCCCC1 (racemic) [BW A868C, (±)-3-benzyl-5-(6-carboxyhexyl)-1-(2-cyclohexyl-2-hydroxyethylamino)-hydantoin]
Stab wound model mice [1]; 1 mg/kg intravenous after 3 hours and after one day from injury, leakage during 2 hours
  leakage of the dye to the injured site: suppressed
Stab wound model mice [2]; Stab wound model mice, intravenous 1 mg/kg/day for 4 days from the initial day of injury
  recovery of brain injury: promotion of recovery

## c1ccc(C(OC2CCN(CCCc3nnn[nH]3)CC2)c2ccccc2)cc1 [HQL-79, 4-benzhydryloxy-1-{3-(1H-tetrazol-5-yl)-propyl}piperidine]
DP receptor
  amount of mRNA of DP receptor in tissue injury region: lowered
Twitcher mice
  activation of astroglia cells: suppressed
  expression of DP receptor in astroglia cells: lowered
Stab wound model mice [1]; Stab wound model, oral 30 mg/kg/day, administration started one hour before injury
  leakage reaction of dye to the injured site: therapeutic effect was also confirmed
Stab wound model mice [1]; [3]
  tissue injury (leakage of dye): inhibitory effect
Stab wound model mice [2]; Stab wound model, oral 30 mg/kg/day for 4 days from one hour before injuring
  recovery of brain injury: promotion of recovery
Stab wound model mice [2]; [3]
  tissue injury (expansion of injury): inhibitory effect
